Assays:
Type in all cases: functional, cell-based, Oocyte
[1] = molecular target: T1, Solute carrier family 22 member 6 (SLC22A6) (Rattus norvegicus, UniProt O35956); assay: TP_TRANSPORTER: inhibition of PAH uptake (PAH: 2 uM, Antipyrine: 1000 uM) in Xenopus laevis oocytes; details: probe PAH
T1 sequence (O35956 whole entry): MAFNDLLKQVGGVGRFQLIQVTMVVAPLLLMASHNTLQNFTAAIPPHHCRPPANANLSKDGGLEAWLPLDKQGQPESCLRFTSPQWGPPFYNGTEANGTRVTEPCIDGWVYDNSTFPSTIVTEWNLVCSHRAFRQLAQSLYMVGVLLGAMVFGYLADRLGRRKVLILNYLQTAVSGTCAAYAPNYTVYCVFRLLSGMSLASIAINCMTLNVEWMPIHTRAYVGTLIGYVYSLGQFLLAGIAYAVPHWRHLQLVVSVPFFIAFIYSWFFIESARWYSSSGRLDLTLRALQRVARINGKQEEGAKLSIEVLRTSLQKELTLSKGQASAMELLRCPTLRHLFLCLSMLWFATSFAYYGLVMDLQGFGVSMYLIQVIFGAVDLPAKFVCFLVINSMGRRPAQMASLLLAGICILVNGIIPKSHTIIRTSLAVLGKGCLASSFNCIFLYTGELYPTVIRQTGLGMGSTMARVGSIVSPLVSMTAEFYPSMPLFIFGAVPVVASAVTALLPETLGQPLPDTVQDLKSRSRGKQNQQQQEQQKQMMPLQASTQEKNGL

[2] = molecular target: T1, Solute carrier family 22 member 6 (SLC22A6); assay: TP_TRANSPORTER: inhibition of PAH uptake (PAH: 2 uM, Ketoprofen: 1000 uM) in Xenopus laevis oocytes; details: probe PAH
[3] = molecular target: T1, Solute carrier family 22 member 6 (SLC22A6); assay: TP_TRANSPORTER: inhibition of PAH uptake (PAH: 2 uM, Phenylbutazone: 1000 uM) in Xenopus laevis oocytes; details: probe PAH
[4] = molecular target: T2, Solute carrier family 22 member 6 (Rattus norvegicus, UniProt O35956); assay: TP_TRANSPORTER: inhibition of PAH uptake in Xenopus laevis oocytes
T2 sequence (O35956 whole entry): T1 sequence (O35956 whole entry)

[5] = molecular target: T1, Solute carrier family 22 member 6 (SLC22A6); assay: TP_TRANSPORTER: inhibition of PAH uptake (PAH: 2 uM, Diclofenac: 1000 uM) in Xenopus laevis oocytes; details: probe PAH
[6] = molecular target: T1, Solute carrier family 22 member 6 (SLC22A6); assay: TP_TRANSPORTER: inhibition of PAH uptake (PAH: 2 uM, Benzydamine: 1000 uM) in Xenopus laevis oocytes; details: probe PAH
[7] = molecular target: T1, Solute carrier family 22 member 6 (SLC22A6); assay: TP_TRANSPORTER: inhibition of PAH uptake (PAH: 2 uM, […]: 1000 uM) in Xenopus laevis oocytes; details: probe PAH
[8] = molecular target: T1, Solute carrier family 22 member 6 (SLC22A6); assay: TP_TRANSPORTER: inhibition of PAH uptake (PAH: 2 uM, Diflunisal: 1000 uM) in Xenopus laevis oocytes; details: probe PAH
[9] = molecular target: T1, Solute carrier family 22 member 6 (SLC22A6); assay: TP_TRANSPORTER: inhibition of PAH uptake (PAH: 2 uM, Meclofenamate: 1000 uM) in Xenopus laevis oocytes; details: probe PAH
[10] = molecular target: T1, Solute carrier family 22 member 6 (SLC22A6); assay: TP_TRANSPORTER: inhibition of PAH uptake (PAH: 2 uM, Tolmetin: 1000 uM) in Xenopus laevis oocytes; details: probe PAH
[11] = molecular target: T1, Solute carrier family 22 member 6 (SLC22A6); assay: TP_TRANSPORTER: inhibition of PAH uptake (PAH: 2 uM, Flurbiprofen: 1000 uM) in Xenopus laevis oocytes; details: probe PAH

With `Cc1cc(=O)n(-c2ccccc2)n1C` [ANTIPYRINE] as the molecule, how does the inhibition at 1000 µM [1] read?
The inhibition at 1000 µM was 37.8%.

For `CC(C(=O)O)c1cccc(C(=O)c2ccccc2)c1` (stereo unspecified) [KETOPROFEN], which inhibition at 1000 µM [2] is on record?
Its inhibition at 1000 µM is 100%.

For `CCCCC1C(=O)N(c2ccccc2)N(c2ccccc2)C1=O` [PHENYLBUTAZONE], which inhibition at 1000 µM [3] is on record?
Its inhibition at 1000 µM is 98.8%.

How did the Ki [4] turn out when `COc1ccc2c(c1)c(CC(=O)O)c(C)n2C(=O)c1ccc(Cl)cc1` [INDOMETHACIN] was run?
The Ki was 10 µM.

With `O=C(O)Cc1ccccc1Nc1c(Cl)cccc1Cl` [DICLOFENAC] as the molecule, how does the inhibition at 1000 µM [5] read?
Its inhibition at 1000 µM is 100%.

How did the Ki [4] turn out when `CC(=O)Nc1ccc(O)cc1` [ACETAMINOPHEN] was run?
Its Ki is 2100 µM.

How did the Ki [4] turn out when `CCOc1ccc(NC(C)=O)cc1` [PHENACETIN] was run?
The Ki was 488 µM.

`COc1ccc2cc([C@H](C)C(=O)O)ccc2c1` [NAPROXEN] was tested. Which Ki [4] did it give?
The Ki was 2 µM.

For `O=C(O)CNC(=O)c1ccccc1O` [SALICYLURIC ACID], which Ki [4] is on record?
The Ki was 11 µM.

Which inhibition at 1000 µM [6] does the source give for `NCc1ccccc1` [BENZYLAMINE] here?
Its inhibition at 1000 µM is 60%.

For `Cc1c(N(C)C)c(=O)n(-c2ccccc2)n1C` [AMINOPYRINE], which inhibition at 1000 µM [7] is on record?
The inhibition at 1000 µM was 23.8%.

Which inhibition at 1000 µM [8] does the source give for `O=C(O)c1cc(-c2ccc(F)cc2F)ccc1O` [DIFLUNISAL] here?
Its inhibition at 1000 µM is 100%.

For `Cc1ccc(Cl)c(Nc2ccccc2C(=O)O)c1Cl` [MECLOFENAMIC ACID], which inhibition at 1000 µM [9] is on record?
Its inhibition at 1000 µM is 99.8%.

Which Ki [4] does the source give for `CCCCC1C(=O)N(c2ccccc2)N(c2ccc(O)cc2)C1=O` (stereo unspecified) [OXYPHENBUTAZONE ANHYDROUS] here?
The Ki was 32 µM.

With `Cc1ccc(C(=O)c2ccc(CC(=O)O)n2C)cc1` [TOLMETIN] as the molecule, how does the inhibition at 1000 µM [10] read?
Its inhibition at 1000 µM is 99.5%.

With `CC(C(=O)O)c1ccc(-c2ccccc2)c(F)c1` (stereo unspecified) [FLURBIPROFEN] as the molecule, how does the inhibition at 1000 µM [11] read?
Its inhibition at 1000 µM is 100%.

Source: ChEMBL document CHEMBL2074222, “Transport properties of nonsteroidal anti-inflammatory drugs by organic anion transporter 1 expressed in Xenopus laevis oocytes” (Mol Pharmacol, 1999)
